Measured values reported in patent publication US11680264B2, “Methods of modulating melanosome pH and melanin level in cells” (Cornell University, priority 2016, dated 2023).

What was measured:
sAC^FF mouse melanocytes [1] = test: LysoSensor Yellow/Blue DND-160 organelle pH assay; assay type: cell-based; settings: 30 μM, 4 hours
Description: (§1) To determine the pH of the sAC^KO and sAC^FF melanocytes the pH-sensitive vital dye LysoSensor Yellow/Blue DND-160 (Bellono et al. Sci Rep., 6:26570 (2016)) was used. Briefly, cells were incubated with 1 μM LysoSensor DND-160 (Invitrogen) for 5 minutes at 37° C. Lysosensor was excited at 405 nm and its emission detected at 417-483 nm (W1) and 490-530 nm (W2). The ratio of emissions (W1/W2) in Lysosensor-stained puncta was assigned to a pH value based on a calibration curve generated for each experiment using solutions containing 125 mM KCl, 25 mM NaCl, 24 μM monensin, and varying concentrations of MES to adjust the pH to 4, 4.5, 5.0, 5.5, 6.0, 6.5, 7.0, 7.5. The fluorescence ratio was linear for pH 5.0-7.0.
as §1, with “The effect” for “To determine the pH”, “pharmacologic inhibition of sAC was examined using” for “the sAC^KO and sAC^FF melanocytes”, “vial” for “vital”, “assay, described above.” for “(Bellono et al. Sci Rep., 6:26570 (2016)) was used.”, “Briefly, cultured sAC^FF melanocytes were treated for 4 hours with 30 μM KH7, 30 μM LRE1, or control (untreated). The” for “Briefly,”

sAC^KO mouse melanocytes [2] = test: LysoSensor Yellow/Blue DND-160 organelle pH assay; assay type: cell-based; settings: 30 μM, 4 hours
Description: as §1
as §1, with “The effect” for “To determine the pH”, “pharmacologic inhibition of sAC was examined using” for “the sAC^KO and sAC^FF melanocytes”, “vial” for “vital”, “assay, described above.” for “(Bellono et al. Sci Rep., 6:26570 (2016)) was used.”, “Briefly, cultured sAC^FF melanocytes were treated for 4 hours with 30 μM KH7, 30 μM LRE1, or control (untreated). The” for “Briefly,”

sAC^FF mouse melanocytes [3] = test: DAMP melanosome pH assay (HMB45 co-staining); assay type: cell-based; settings: KH7 30 μM, 4 hours
Description: (§2) N-{3-[(2,4-dinitrophenyl)amino]propyl}-N-(3-aminopropyl)methylamine dihydrochloride (DAMP) is a weakly basic amine that is taken up in acidic organelles of live cells and which has been used to measure melanosome pH (Bin et al., PLOS One, 10(6):e0129273 (2015); Tabata et al., Cell Tissue Res., 332(3): 447-460 (2008)). Cells were cultured on sterile glass coverslips in 24-mm wells at 50×10^3 cells/coverslip. […] After permeabilization with 0.1% Triton X-100 in Buffer A at −20° C., the cells were labeled with the supplied anti-DNP antibody (Oxford Biomedical Research) according to kit protocol. Melanosomes were identified using the monoclonal antibody (anti-HMB45, 1:40, Santa Cruz Biotechnology). Fluorescence was detected after secondary staining with Alexa Fluor 546 donkey anti-goat IgG antibody (Invitrogen) and Alexa Fluor 647 donkey anti-mouse IgG antibody (Invitrogen). All quantitative analyses were performed using the Object Count tool in Nikon AR 4.60. For each image, the lower intensity threshold limit of each fluorescence channel was defined as the intensity of the dimmest punctum returned using the 3 points circle threshold tool. The upper intensity threshold limit was set to the maximum value. Equivalent diameter (EqDiameter) was restricted to 1.85-30.00 pixels. Circularity was restricted to 0.20-1.00. Mean fluorescence intensity was measured for all DAMP^+ puncta. Melanosomes were identified as HMB45^+ puncta. DAMP measurements were only recorded when colocalized with HMB45. Frequency distributions were generated for each sample from mean DAMP fluorescence intensity of DAMP^+ melanosomes. All analyses were performed on two replicate coverslips (n≥15 cells per coverslip). Melanosomes were first identified as TRP1^+ or tyrosinase^+ puncta. sAC^+ melanosomes were identified as R52^+ or R21^+ puncta colocalizing with TRP1^+ or tyrosinase^+ puncta. The degree of colocalization between sAC and melanosomes was calculated as the number of sAC+ melanosomes divided by the total number of melanosomes and expressed as a percentage.
(§3) The effect of pharmacologic inhibition of sAC was also measured using the DAMP assay described above. Briefly, Cells were cultured on sterile glass coverslips in 24-mm wells at 50×10^3 cells/coverslip and treated or not treated for 4 hours with 30 μM KH7 or LRE1. […] After permeabilization with 0.1% Triton X-100 in Buffer A at −20° C., the cells were labeled with the supplied anti-DNP antibody (Oxford Biomedical Research) according to kit protocol. Melanosomes were identified using the monoclonal antibody (anti-HMB45, 1:40, Santa Cruz Biotechnology). Fluorescence was detected after secondary staining with Alexa Fluor 546 donkey anti-goat IgG antibody (Invitrogen) and Alexa Fluor 647 donkey anti-mouse IgG antibody (Invitrogen). All images were acquired using a Zeiss LSM 880 and analyzed using NIS-Elements AR 4.60 (Nikon).

sAC^KO mouse melanocytes [4] = test: DAMP melanosome pH assay (HMB45 co-staining); assay type: cell-based; settings: 4 hours, KH7 30 μM, cAMP analogs 500 μM, ESI-09 10 μM, MSH 100 nM
Description: as §2, §3

C3H/HeJ mice = test: Topical treatment of epilated back skin, hair pigmentation; assay type: in vivo, mouse
Description: Therefore, experiments were performed to determine whether inhibition of sAC in animals could alter hair pigmentation. Animal experiments were performed in accordance with approved Institutional Animal Care and Use Committee protocol at Weill Cornell Medicine. Age and gender matched C3H/HeJ mice (female, 7 weeks old) were purchased from The Jackson Laboratory. For the analysis of hair pigmentation, the upper and lower dorsum of each mouse were epilated using hair removal wax. 10 μl of KH7 (42 mg/ml in DMSO), LRE1 (28 mg/ml in DMSO) or DMSO (vehicle control) was topically applied onto the upper back and DMSO was applied to the lower back three times a day over two weeks. These mice were monitored for changes in coat color as the epilated hair grew back. Hair was removed from each treated area after 3 weeks to measure the length of the total hair, apical black tip and subapical agouti (pheomelanin) band under a stereo microscope. Mice were euthanized and the treated skin was submitted to a blinded animal pathologist for histological evaluation of the epidermis and hair follicles. This experiment was performed twice with 3-4 mice per cohort (total n=6-7)

[5] = topical on back, hair removed after 3 weeks

## CC(Sc1nc2ccccc2[nH]1)C(=O)N/N=C/c1cc(Br)ccc1O (stereo not drawn) [KH7]
sAC^FF mouse melanocytes [1]
  pH of LysoSensor-visualized organelles: induced an alkaline pH shift
sAC^KO mouse melanocytes [2]
  pH of LysoSensor-visualized organelles: had no effect
sAC^FF mouse melanocytes [3]; mouse melanocytes
  HMB45 staining intensity: had no effect
sAC^FF mouse melanocytes [3]; sAC^FF mouse melanocytes, cAMP 500 μM, H89 10 μM, PKI 10 μM, ESI-09 10 μM
  melanosome pH (DAMP uptake at HMB45 positive melanosomes), substance alone: reduction in DAMP uptake (alkaline shift in pH)
sAC^KO mouse melanocytes [4]
  melanosome pH (DAMP), substance alone: had no effect
C3H/HeJ mice; [5]
  eumelanin production in hair (microscopic examination): increase in eumelanin production
  length of the agouti (pheomelanin) band: reduction in length of the agouti (pheomelanin) band
C3H/HeJ mice; topical on back, two weeks
  histologic examination of treated skin: did not reveal any pathological change to the hair follicles or epidermis
C3H/HeJ mice; topical on epilated back, 10 μl KH7 42 mg/ml or LRE1 28 mg/ml in DMSO, three times a day over two weeks
  colour of regrown hair versus vehicle control: visual darkening of regrown hair
